Measurements from patent US7557133B2, “Caspase inhibitors containing isoxazoline ring” (LG Life Sciences Ltd., priority 2003, dated 2009).

What was measured:
[1] = system: Jurkat cell (ATCC TIB-152); test: Jurkat cell apoptosis by Fas antibody, WST-1 method; assay type: cell-based; details: apoptosis using Fas antibody, WST-1; for IC50: Homo sapiens, Jurkat
Experimental: The […] inhibitory activity of the inhibitors was determined by subjecting Jurkat cell (ATCC TIB-152) to apoptosis using Fas antibody (Upstate Biotech 05-201) and by detecting the color change according to the WST-1 method known in Francoeur A. M. and Assalian A. (1996) Biochemica 3, 19-25 to observe the amount of alive Jurkat cells when the cells were treated by the inhibitor. Spectra MAX 340 Spectrometer of Molecular Device Co. was used at the absorbance wavelength of 440 nm.

[2] = target: T1, caspase-8 (Homo sapiens, UniProt Q14790); test: Caspase-8 inhibitory effect (fluorescent substrate AcDEVD-AFC); assay type: biochemical; details: 25° C., 50 μM AcDEVD-AFC, 2.1 nM caspase-8; for kinact/KI: pH 7.5, read-out: Caspase-8 Kobs/[I] (converted)
T1 construct: p10 and p20 subunits (Thornberry, N. A. et al, Nature, 1992, 356, 768) were expressed in E. coli; made in house; host or cells: E. coli
Experimental: Caspase-1 and caspase-8 known as cysteine proteases in the form of α2β2 were expressed, purified, and activated by modifying a method known in Thornberry, N. A. et al, Nature, 1992, 356, 768. Thornberry, N. A. Methods in Enzymology, 1994, 244, 615. Walker, N. P. C. et al. Cell, 1994, 78, 343, and caspase-9 was also purified by a similar method, and the inhibitory activity against them was tested. Briefly describing, p10 and p20 subunits (Thornberry, N. A. et al, Nature, 1992, 356, 768) were expressed in E. coli and purified by nickel column and anionic exchange chromatography to give caspase-1, caspase-8 and caspase-9. The fluorescent substrate AcYVAD-AFC for thus obtained caspase-1, AcDEVD-AFC for caspase-8, and AcLEHD-AFC for caspase-9 were used for determining specific activity of the synthesized inhibitors. The enzyme reaction was carried out at 25° C. with various concentrations of the inhibitors in a buffer solution containing 50 mM HEPES(pH 7.50), 10% (w/v) sucrose, 0.1% (w/v) CHAPS, 100 mM NaCl, 1 mM EDTA, and 10 mM DTT in the presence of 50 μM AcYVAD-AFC for 10 nM caspase-1, 50 μM AcDEVD-AFC for 2.1 nM caspase-8, and 150 μM AcLEHD-AFC for 200 nM caspase-9. The inhibitory constants Ki and Kobs of the inhibitors were determined by measuring the reaction velocity with the time lapse using a fluorescent spectrometer and by obtaining the initial rate constant. Ki was calculated from the Lineweaver Burk Plot, and Kobs from the following Equation 1. Kobs=−ln(1−At/Aoo)/t Equation 1
At means cleavate rate (%) at time t, and
Aoo means the maximum cleavage rate (%).
Spectra MAX GeminiXS Fluorescent Spectrometer of Molecular Device Co. was used at the excitation wavelength of 405 nm and the emission wavelength of […].

T1 sequence (Q14790 217-374 limits assumed, species assumed): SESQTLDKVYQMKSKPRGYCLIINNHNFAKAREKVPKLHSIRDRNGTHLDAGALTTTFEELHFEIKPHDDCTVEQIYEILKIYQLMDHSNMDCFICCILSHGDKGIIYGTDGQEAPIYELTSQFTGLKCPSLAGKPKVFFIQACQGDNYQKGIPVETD
T1 sequence (Q14790 385-479 limits assumed, species assumed): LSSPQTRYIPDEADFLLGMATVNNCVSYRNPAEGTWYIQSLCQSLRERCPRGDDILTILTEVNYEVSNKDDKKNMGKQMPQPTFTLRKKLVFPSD

CCC1(C(=O)NC(CC(=O)O)C(=O)CF)CC(c2ccccc2C(C)C)=NO1 (centres unmarked) [Iaa1, 3-({[5-Ethyl-3-(2-isopropylphenyl)-4,5-dihydro-5-isoxazolyl]carbonyl}amino)-5-fluoro-4-oxopentanoic acid] was tested, and the IC50 [1] was 330 nM and the kinact/KI [2] was 3000 M⁻¹ s⁻¹.

Work on CCC1(C(=O)NC(CC(=O)O)C(=O)CF)CC(c2cnc3ccccc3c2)=NO1 (centres unmarked) [Iyy, 3-({[5-ethyl-3-(3-quinolinyl)-4,5-dihydro-5-isoxazolyl]carbonyl}amino)-5-fluoro-4-oxopentanoic acid] yielded an IC50 [1] of 31200 nM and a kinact/KI [2] of 5170 M⁻¹ s⁻¹.

With C=CC(=O)[C@H](CC(=O)O)NC(=O)[C@]1(C(C)C)CC(c2nccc3ccccc23)=NO1 [Iaa22, (3S)-3-({[(5R)-5-isopropyl-3-(1-isoquinolinyl)-4,5-dihydro-5-isoxazolyl]carbonyl}amino)-4-oxo-5-hexenoic acid] the “Caspase-8 Kobs/[I]” value [2] was “No Activity”.

In the case of CCC1(C(=O)N[C@@H](CC(=O)O)C(=O)COc2c(F)c(F)cc(F)c2F)CC(c2ccc3ccccc3c2)=NO1 (stereo partly drawn) [Iee, (3S)-3-({[5-ethyl-3-(2-naphthyl)-4,5-dihydro-5-isoxazolyl]carbonyl}amino)-4-oxo-5-(2,3,5,6-tetrafluorophenoxy)pentanoic acid], the IC50 [1] is reported as 32600 nM and the kinact/KI [2] is reported as 3000 M⁻¹ s⁻¹.

Work on CCC1(C(=O)N[C@@H](CC(=O)O)C(=O)COc2c(F)c(F)cc(F)c2F)CC(c2nccc3ccccc23)=NO1 (stereo partly drawn) [Iff, (3S)-3-({[5-ethyl-3-(1-isoquinolinyl)-4,5-dihydro-5-isoxazolyl]carbonyl}amino)-4-oxo-5-(2,3,5,6-tetrafluorophenoxy)pentanoic acid] yielded an IC50 [1] of 1200 nM and a kinact/KI [2] of 8330 M⁻¹ s⁻¹.

In the case of CC(C)[C@@]1(C(=O)N[C@@H](CC(=O)O)C(=O)COC2=C(Cc3ccccc3)C(=O)OC2)CC(c2nccc3ccccc23)=NO1 [Iaa20, (3S)-5-[(4-benzyl-5-oxo-2,5-dihydro-3-furanyl)oxy]-3-({[(5R)-5-isopropyl-3-(1-isoquinolinyl)-4,5-dihydro-5-isoxazolyl]carbonyl}amino)-4-oxopentanoic Acid], the “Jurkat cell IC50” value [1] is reported as “No Activity” and the kinact/KI [2] is reported as 617 M⁻¹ s⁻¹.

For CCC1(C(=O)NC(CC(=O)O)C(=O)CF)CC(c2ccnc3ccccc23)=NO1 (centres unmarked) [Ijj, 3-({[5-Ethyl-3-(4-quinolinyl)-4,5-dihydro-5-isoxazolyl]carbonyl}amino)-5-fluoro-4-oxopentanoic acid], the IC50 [1] was 4700 nM and the kinact/KI [2] was 3170 M⁻¹ s⁻¹.

CC(C)[C@@]1(C(=O)NC(CC(=O)O)C(=O)CF)CC(c2cccc(C(C)(C)C)c2)=NO1 (stereo partly drawn) [Iaa5, 3-[({(5R)-3-[3-(tert-butyl)phenyl]-5-isopropyl-4,5-dihydro-5-isoxazolyl}carbonyl)amino]-5-fluoro-4-oxopentanoic acid] showed an IC50 [1] of 300 nM and a kinact/KI [2] of 5000 M⁻¹ s⁻¹.

With CCC1(C(=O)NC(CC(=O)O)C(=O)CF)CC(c2cc(C3CC3)ccn2)=NO1 (centres unmarked) [Iaa12, 3-({[3-(4-Cyclopropyl-2-pyridinyl)-5-ethyl-4,5-dihydro-5-isoxazolyl]carbonyl}amino)-5-fluoro-4-oxopentanoic acid] the IC50 [1] was 700 nM and the kinact/KI [2] was 3170 M⁻¹ s⁻¹.

CCC1(C(=O)NC(CC(=O)O)C(=O)CF)CC(c2cc(C(C)(C)C)ccn2)=NO1 (centres unmarked) [Iaa8, 3-[({3-[4-(tert-Butyl)-2-pyridinyl]-5-ethyl-4,5-dihydro-5-isoxazolyl}carbonyl)amino]-5-fluoro-4-oxopentanoic Acid] was tested, and the IC50 [1] was 700 nM and the kinact/KI [2] was 7500 M⁻¹ s⁻¹.

Work on CC(C)[C@@]1(C(=O)N[C@@H](CC(=O)O)C(=O)CF)CC(c2nccc3ccccc23)=NO1 [Iii-1, (3S)-5-fluoro-3-({[(5R)-5-isopropyl-3-(1-isoquinolinyl)-4,5-dihydro-5-isoxazolyl]carbonyl}amino)-4-oxopentanoic acid] yielded a kinact/KI [2] of 383000 M⁻¹ s⁻¹.

Compound CCC1(C(=O)N[C@@H](CC(=O)O)C(=O)COC(=O)c2c(Cl)cccc2Cl)CC(CCc2cccc3ccccc23)=NO1 (stereo partly drawn) [Ioo, (3S)-5-[(2,6-dichlorobenzoyl)oxy]-3-[({5-ethyl-3-[2-(1-naphthyl)ethyl]-4,5-dihydro-5-isoxazolyl}carbonyl)amino]-4-oxopentanoic acid] has an IC50 [1] of 50000 nM and a kinact/KI [2] of 333 M⁻¹ s⁻¹.

With CCC1(C(=O)NC(CC(=O)O)C(=O)CF)CC(c2ccc(C(C)(C)C)cc2)=NO1 (centres unmarked) [Iaa3, 3-[({3-[4-(tert-Butyl)phenyl]-5-ethyl-4,5-dihydro-5-isoxazolyl}carbonyl)amino]-5-fluoro-4-oxopentanoic acid] the IC50 [1] was 2650 nM and the kinact/KI [2] was 2330 M⁻¹ s⁻¹.

CC(C)C1(C(=O)NC(CC(=O)O)C(=O)CF)CC(c2cccc(-c3ccccc3)c2)=NO1 (centres unmarked) [Iaa6, 3-{[(3-[1,1′-biphenyl]-3-yl-5-isopropyl-4,5-dihydro-5-isoxazolyl)carbonyl]amino}-5-fluoro-4-oxopentanoic acid] was tested, and the IC50 [1] was 2450 nM and the kinact/KI [2] was 3330 M⁻¹ s⁻¹.

CCC1(C(=O)N[C@@H](CC(=O)O)C(=O)COc2c(F)c(F)cc(F)c2F)CC(c2c(C)c3ccccc3n2C)=NO1 (stereo partly drawn) [Ill, (3S)-3-({[3-(1,3-dimethyl-1H-indol-2-yl)-5-ethyl-4,5-dihydro-5-isoxazolyl]carbonyl}amino)-4-oxo-5-(2,3,5,6-tetrafluorophenoxy)pentanoic acid] was tested, and the IC50 [1] was 39200 nM and the kinact/KI [2] was 2170 M⁻¹ s⁻¹.

With CCC1(C(=O)NC(CC(=O)O)C(=O)CF)CC(c2cc3ccccc3s2)=NO1 (centres unmarked) [Ikk, 3-({[3-(benzothiophen-2-yl)-5-ethyl-4,5-dihydro-5-isoxazolyl]carbonyl}amino)-5-fluoro-4-oxopentanoic acid] the IC50 [1] was 1100 nM and the kinact/KI [2] was 2000 M⁻¹ s⁻¹.

Compound CC[C@@]1(C(=O)NC(CC(=O)O)C(=O)CF)CC(c2cccc3ccccc23)=NO1 (stereo partly drawn) [Iuu, 3-({[(5S)-5-ethyl-3-(1-naphthyl)-4,5-dihydro-5-isoxazolyl]carbonyl}amino)-5-fluoro-4-oxopentanoic acid] has an IC50 [1] of 980 nM and a kinact/KI [2] of 4830 M⁻¹ s⁻¹.

With CCC1(C(=O)NC(CC(=O)O)C(=O)CF)CC(c2ccccn2)=NO1 (centres unmarked) [Iaa7, 3-({[5-Ethyl-3-(2-pyridinyl)-4,5-dihydro-5-isoxazolyl]carbonyl}amino)-5-fluoro-4-oxopentanoic Acid] the IC50 [1] was 2270 nM and the kinact/KI [2] was 733 M⁻¹ s⁻¹.

CC(C)[C@@]1(C(=O)N[C@H](/C=C/S(C)(=O)=O)CC(=O)O)CC(c2nccc3ccccc23)=NO1 [Iss, (3S,4E)-3-({[(5R)-5-isopropyl-3-(1-isoquinolinyl)-4,5-dihydro-5-isoxazolyl]carbonyl}amino)-5-(methylsulfonyl)-4-pentenoic acid] was tested, and the “Jurkat cell IC50” value [1] was “No Activity”.

CCOC(=O)/C=C/[C@H](CC(=O)O)NC(=O)[C@]1(C(C)C)CC(c2nccc3ccccc23)=NO1 [Irr, (3S,4E)-6-ethoxy-3-({[(5R)-5-isopropyl-3-(1-isoquinolinyl)-4,5-dihydro-5-isoxazolyl]carbonyl}amino)-6-oxo-4-hexenoic Acid] was tested, and the “Jurkat cell IC50” value [1] was “No Activity”.

With CCC1(C(=O)N[C@@H](CC(=O)O)C(=O)COc2ccccn2)CC(c2ccccc2C(C)C)=NO1 (stereo partly drawn) [Iaa24, (3S)-3-({[5-ethyl-3-(2-isopropylphenyl)-4,5-dihydro-5-isoxazolyl]carbonyl}amino)-4-oxo-5-(2-pyridinyloxy)pentanoic Acid] the “Caspase-8 Kobs/[I]” value [2] was “No Activity”.

In the case of CC(C)[C@@]1(C(=O)N[C@H](CC(=O)O)C(=O)CF)CC(c2nccc3ccccc23)=NO1 [Iii-2, (3R)-5-fluoro-3-({[(5R)-5-isopropyl-3-(1-isoquinolinyl)-4,5-dihydro-5-isoxazolyl]carbonyl}amino)-4-oxopentanoic acid], the kinact/KI [2] is reported as 7830 M⁻¹ s⁻¹.
